pIC50: −log10 of the molar value. A value given as a limit tells only on which side of the number the result lay.

For orientation: pIC50 means the negative decadic logarithm of the IC50, by convention in mol/L.

Settings in all cases: bmdc
Data set [1] can be described thus: Cytotoxicity against C57BL/6 mouse BMDCs at 2 to 50 microM by MTT assay.
In data set [2] the test system is IL-6 (mouse). Put plainly: Antiinflammatory activity in C57BL/6 mouse BMDCs assessed as inhibition of LPS-stimulated IL-6 production treated 1 hr before LPS challenge measured 16 hrs post stimulation by ELISA. (In general: In an ELISA, binding on a coated surface is turned into a signal by an enzyme label.)
Data set [3] is described as follows: Antiinflammatory activity in C57BL/6 mouse BMDCs assessed as inhibition of LPS-stimulated IL-12p40 production treated 1 hr before LPS challenge measured 16 hrs post stimulation by ELISA.
Data set [4] is described as follows: Antiinflammatory activity in C57BL/6 mouse BMDCs assessed as inhibition of LPS-stimulated TNF-alpha production treated 1 hr before LPS challenge measured 16 hrs post stimulation by ELISA.

As to `CC(=O)O[C@H]1CC[C@]2(C)[C@H]3CC=C4[C@@H]5CC(C)(C)CC[C@]5(C)CC[C@@]4(C)[C@]3(C)CC[C@H]2C1(C)C` [beta-AMYRIN ACETATE], the Activity entry in data set [1] is “Non-toxic”. Besides, the pIC50 in data set [2], in data set [3] and in data set [4] was < 4.30 in each case.
For `COc1cc([C@@H]2CC(=O)c3c(O)cc(O[C@@H]4O[C@H](CO)[C@@H](O)[C@H](O)[C@H]4O[C@@H]4OC[C@](O)(CO)[C@H]4O)cc3O2)ccc1O`, the Activity result in data set [1] is given as “Non-toxic”. Further, the pIC50 in data set [2], in data set [3] and in data set [4] was < 4.30 throughout.
Take `C/C(=C\CO)CCC[C@H](C)CCC[C@H](C)CCCC(C)C` [TRANS-PHYTOL]: the Activity result in data set [1] is “Non-toxic”. In addition, the pIC50 in data set [2] was 5.69; in data set [3], 5.44; in data set [4] it was 5.91.
In the case of `CC1(C)CC[C@]2(C(=O)O)CC[C@]3(C)C(=CC[C@@H]4[C@@]5(C)CC[C@H](O)C(C)(C)[C@@H]5CC[C@]43C)[C@@H]2C1` [OLEANOLIC_ACID], in data set [1], the Activity result was “Non-toxic”. Moreover, the pIC50 in data set [2], in data set [3] and in data set [4] was < 4.30 each time.
On to `COc1cc([C@@H]2c3c(cc(OC)c(O)c3OC)C[C@H](CO)[C@H]2CO[C@@H]2O[C@H](CO)[C@@H](O)[C@H](O)[C@H]2O)cc(OC)c1O`, for which the Activity entry in data set [1] is reported as “Non-toxic”. The pIC50 in data set [2] is < 4.30; in data set [3], 4.84; in data set [4], < 4.30.
As for `COc1cc(O)c2c(c1)O[C@H](c1ccc(O[C@@H]3O[C@H](CO)[C@@H](O)[C@H](O)[C@H]3O[C@@H]3OC[C@](O)(CO)[C@H]3O)c(OC)c1)CC2=O`, the Activity entry in data set [1] is “Non-toxic”. For the same compound, the pIC50 in data set [2], in data set [3] and in data set [4] was < 4.30 in each case.
Consider `COc1cc(O)c2c(=O)c(O[C@H]3O[C@H](COC(=O)CC(C)(O)CC(=O)OC[C@H]4O[C@@H](Oc5c(OC)cc(/C=C/CO)cc5OC)[C@H](O)[C@@H](O)[C@@H]4O)[C@@H](O)[C@H](O)[C@H]3O)c(-c3ccc(O[C@@H]4O[C@H](CO)[C@@H](O)[C@H](O)[C@H]4O)c(OC)c3)oc2c1` (some centres undefined), for which the Activity result in data set [1] is given as “Non-toxic”. In addition, the pIC50 in data set [2], in data set [3] and in data set [4] was < 4.30 each time.
`CO[C@H](/C=C/c1ccc(O)cc1)C[C@@H](O)CCc1ccc(O)cc1`: in data set [1], the Activity entry was “Non-toxic”. In addition, the pIC50 in data set [2] is < 4.30; in data set [3], 4.93; in data set [4], < 4.30.
With `COc1cc([C@H]2OC[C@H]3[C@@H]2CO[C@@H]3c2ccc(O)c(OC)c2)ccc1O` [(+)-PINORESINOL], the Activity result in data set [1] was “Non-toxic”.
Take `COc1cc(O)c2c(=O)c(O[C@H]3O[C@H](COC(=O)CC(C)(O)CC(=O)O)[C@@H](O)[C@H](O)[C@H]3O)c(-c3ccc(O[C@@H]4O[C@H](CO)[C@@H](O)[C@H](O)[C@H]4O)c(OC)c3)oc2c1` (some centres undefined): the Activity entry in data set [1] is recorded as “Non-toxic”. Also, the pIC50 in data set [2], in data set [3] and in data set [4] was < 4.30 each time.
Turning to `COc1cc([C@@H]2OC[C@@H]3[C@H]2CO[C@H]3c2ccc(O)c(OC)c2)ccc1O` [(+)-PINORESINOL], the pIC50 in data set [2] is < 4.30; in data set [3], 4.54; in data set [4] it was < 4.30.
For `C=CC(C)(O)CC/C=C(\C)CCC=C(C)C` (centres undefined) [NEROLIDOL], in data set [1], the Activity entry is listed as “Non-toxic”. Moreover, the results for the pIC50 in data set [2], in data set [3] and in data set [4] were 4.69, 5.12 and 5.69, respectively.
`COc1cc(/C=C/CO)cc(OC)c1O[C@@H]1O[C@H](CO)[C@@H](O)[C@H](O)[C@H]1O` [SYRINGIN]: the Activity result in data set [1] is recorded as “Non-toxic”. For the same compound, the pIC50 in data set [2], in data set [3] and in data set [4] was < 4.30 throughout.
With `COc1cc([C@@H]2CC(=O)c3c(O)cc(O[C@@H]4O[C@H](CO)[C@@H](O)[C@H](O)[C@H]4O[C@@H]4OC[C@](O)(CO[C@@H]5OC[C@](O)(CO)[C@H]5O)[C@H]4O)cc3O2)ccc1O` [VISCUMNEOSIDE V], the Activity entry in data set [1] is recorded as “Non-toxic”. The pIC50 in data set [2], in data set [3] and in data set [4] was < 4.30 in each case.
`C[S+]([O-])c1ccc(-c2nc(-c3ccc(F)cc3)c(-c3ccncc3)[nH]2)cc1` (centres undefined) [SB-203580]: the pIC50 in data set [2] was 5.46; in data set [3], 5.28; in data set [4], 5.12.
As to `O=C(/C=C/c1ccc(O)cc1)C[C@@H](O)CCc1ccc(O)cc1`, in data set [1], the Activity entry was “Non-toxic”. Moreover, the pIC50 in data set [2], in data set [3] and in data set [4] was < 4.30 throughout.
Consider `COc1cc(-c2cc(=O)c3c(O)cc(O[C@@H]4O[C@H](CO)[C@@H](O)[C@H](O)[C@H]4O[C@@H]4OC[C@](O)(CO)[C@@H]4O)cc3o2)ccc1O`, for which the Activity entry in data set [1] is recorded as “Non-toxic”. The pIC50 is < 4.30 in data set [2], 4.11 in data set [3] and < 4.30 in data set [4].
With `COc1cc([C@H]2OC[C@H]3[C@@H]2CO[C@@H]3c2cc(OC)c(O)c(OC)c2)ccc1O`, in data set [1], the Activity entry is recorded as “Non-toxic”. Further, the pIC50 in data set [2] is 4.68; in data set [3] it was 5.70; in data set [4] it was 4.65.
For `C=C(C)[C@@H]1CC[C@]2(C(=O)O)CC[C@]3(C)[C@H](CC[C@@H]4[C@@]5(C)CC[C@H](O)C(C)(C)[C@@H]5CC[C@]43C)[C@@H]12` [BETULINIC ACID], the Activity entry in data set [1] is “Non-toxic”. In addition, the pIC50 is 4.67 in data set [2], 5.44 in data set [3] and 4.71 in data set [4].
In the case of `CC1(C)CC[C@]2(CO)CC[C@]3(C)C(=CC[C@@H]4[C@@]5(C)CC[C@H](O)C(C)(C)[C@@H]5CC[C@]43C)[C@@H]2C1` [ERYTHRODIOL], in data set [1], the Activity result is on record as “Non-toxic”. For the same compound, the pIC50 in data set [2] is < 4.30; in data set [3], 4.87; in data set [4], < 4.30.
As for `COc1cc(O)c2c(=O)cc(-c3ccc(O[C@@H]4O[C@H](CO)[C@@H](O)[C@H](O)[C@H]4O[C@@H]4OC[C@](O)(CO)[C@H]4O)c(OC)c3)oc2c1`, in data set [1], the Activity result is “Non-toxic”. Also, the pIC50 in data set [2], in data set [3] and in data set [4] was < 4.30 each time.
As for `COc1cc(O)c2c(=O)c(OC)c(-c3ccc(O[C@@H]4O[C@H](CO)[C@@H](O)[C@H](O)[C@H]4O[C@@H]4OC[C@](O)(CO)[C@H]4O)c(OC)c3)oc2c1`, the Activity result in data set [1] is “Non-toxic”. Besides, the pIC50 in data set [2] is 5.05; in data set [3], 5.41; in data set [4] it was 6.00.
For the compound `COc1cc([C@H]2c3c(cc(OC)c(O)c3OC)C[C@@H](CO)[C@@H]2CO[C@@H]2O[C@H](CO)[C@@H](O)[C@H](O)[C@H]2O)cc(OC)c1O`, the Activity result in data set [1] is “Non-toxic”. In addition, the pIC50 in data set [2], in data set [3] and in data set [4] was < 4.30 throughout.
Consider `COc1cc(/C=C/CO)cc(OC)c1O[C@@H]1O[C@H](CO)[C@@H](O)[C@H](O)[C@H]1O[C@@H]1OC[C@](O)(CO)[C@H]1O`, for which, in data set [1], the Activity entry is reported as “Non-toxic”. For the same compound, the pIC50 in data set [2], in data set [3] and in data set [4] was < 4.30 each time.
For the compound `COc1cc(O)c2c(c1)O[C@H](c1ccc(O[C@@H]3O[C@H](CO)[C@@H](O)[C@H](O)[C@H]3O[C@@H]3OC[C@](O)(CO[C@@H]4OC[C@](O)(CO)[C@H]4O)[C@H]3O)c(OC)c1)CC2=O`, in data set [1], the Activity result was “Non-toxic”. Also, the pIC50 in data set [2], in data set [3] and in data set [4] was < 4.30 throughout.
For the compound `CO[C@@H](/C=C/c1ccc(O)cc1)C[C@@H](O)CCc1ccc(O)cc1`, in data set [1], the Activity entry is recorded as “Non-toxic”. Also, the pIC50 in data set [2] is 6.17; in data set [3], 7.05; in data set [4] it was 6.49.

The values above are taken from ChEMBL document CHEMBL2331464, “Diarylheptanoids and flavonoids from viscum album inhibit LPS-stimulated production of pro-inflammatory cytokines in bone marrow-derived dendritic cells” (J Nat Prod, 2013).
